What was measured:
Assay type in all cases: cell-based
[1] = test system: LC3 gene; experiment: LC3 gene expression promoting effect in human senescent fibroblasts (quantitative real-time PCR)
Description: (§1) Normal human fibroblasts (NB1RGB, RIKEN BRC Cell Bank) were cultured until confluent in D-MEM medium (manufactured by Sigma-Aldrich) to which 10% fetal bovine serum (manufactured by MP Biomedicals) was added. Thereafter, the cells were treated with 250 μM aqueous hydrogen peroxide for 2 hours, and cultured for 24 hours in D-MEM medium to which fresh 10% fetal bovine serum was added. The treatment with aqueous hydrogen peroxide and the cell culture operation were repeated three times, and the obtained fibroblasts were used as senescent fibroblasts.
(§2) The prepared senescent fibroblasts were prepared at a seeding density of 10000 cells/cm^2 and cultured for 24 hours in D-MEM medium (manufactured by Sigma-Aldrich) to which 10% fetal bovine serum (manufactured by MP Biomedicals) was added. […]
(§3) Then, using Nucleospin (registered trademark) RNA kit (manufactured by Takara Bio Inc.), RNA was extracted from senescent fibroblasts or normal human fibroblasts in each example, and cDNA was synthesized from the obtained RNA. Next, using this cDNA as a template, by quantitative real-time PCR, the expression level of each gene was quantified using primers (manufactured by Takara Bio Inc.) specific to the LC3 gene, ATG5 gene, and ATG7 gene, respectively. […]

[2] = test system: ATG5 gene; experiment: ATG5 gene expression promoting effect in human senescent fibroblasts (quantitative real-time PCR)
Description: as §1, §2, §3

[3] = test system: mTOR gene; experiment: mTOR gene expression suppression effect in human senescent fibroblasts (quantitative real-time PCR)
Description: as §1, §2
as §3, with “of mTOR” for “of each”, “to mTOR gene.” for “to the LC3 gene, ATG5 gene, and ATG7 gene, respectively.”

[4] = 10^−2% (V/V) methyl hesperidin or hesperidin, additional ingredient where in the example, 24 hours, Comparative Example 1 (DMSO) = 1.00
[5] = compared to DMSO only of Comparative Example 1

COc1ccc([C@@H]2CC(=O)c3c(O)cc(O[C@@H]4O[C@H](CO[C@@H]5O[C@@H](C)[C@H](O)[C@@H](O)[C@H]5O)[C@@H](O)[C@H](O)[C@H]4O)cc3O2)cc1O [Comparative Example 2, hesperidin]
Relative gene expression level LC3 [1, 4]: <0
expression level of the LC3 gene (in words) [1, 5]: more decreased
Relative gene expression level ATG5 [2, 4]: 0.93
expression level of the ATG5 gene (in words) [2, 5]: more decreased
Relative gene expression level mTOR ([3]; 10^−2% (V/V) methyl hesperidin or hesperidin, additional ingredient where in the example, 24 hours, Comparative Example 3 (DMSO) = 1.00): 1.16
expression level of mTOR gene (in words) ([3]; compared to DMSO only of Comparative Example 3): almost the same
